Measured values: ChEMBL document CHEMBL1139622, “Discovery of potent and selective orally bioavailable beta-substituted phenylalanine derived dipeptidyl peptidase IV inhibitors” (Bioorg Med Chem Lett, 2005)

Tests used:
Dipeptidyl peptidase 4 [1] = target: Dipeptidyl peptidase 4 (Homo sapiens, UniProt P27487)
Description: Inhibitory concentration against dipeptidylpeptidase IV

Dipeptidyl peptidase 9 = Dipeptidyl peptidase 9 (Homo sapiens, UniProt Q86TI2)
Description: Inhibitory concentration against dipeptidylpeptidase 9

Dipeptidyl peptidase 2 = Dipeptidyl peptidase 2 (Homo sapiens, UniProt Q9UHL4)
Description: Inhibitory concentration against dipeptidylpeptidase II (QPP)

[2] = Half-life in rat; format: ADME; conditions: in vivo
[3] = Plasma clearance in rat; format: ADME, organism-based; conditions: read-out: Clp
in vivo = conditions: rat
Dipeptidyl peptidase 8 = Dipeptidyl peptidase 8 (Homo sapiens, UniProt Q6V1X1)
Description: Inhibitory concentration against dipeptidylpeptidase 8

Dipeptidyl peptidase 4 [4] = target: T1, Dipeptidyl peptidase 4 (Mus musculus, UniProt P28843); test: Inhibitory concentration against mouse dipeptidylpeptidase IV in presence of 3% mouse serum
Dipeptidyl peptidase 4 [5] = target: T1, Dipeptidyl peptidase 4; test: Inhibitory concentration against mouse dipeptidylpeptidase IV in presence of 15% mouse serum
Dipeptidyl peptidase 4 [6] = target: T1, Dipeptidyl peptidase 4; test: Inhibitory concentration against mouse dipeptidylpeptidase IV in presence of 50% mouse serum
[7] = Half-life in dog; format: ADME, Canis lupus familiaris; conditions: in vivo
[8] = Half-life in rhesus monkey; format: ADME; conditions: cercopithecidae, in vivo
[9] = Plasma clearance in dog; format: ADME, organism-based, Canis lupus familiaris; conditions: read-out: Clp
[10] = Plasma clearance in rhesus monkey; format: ADME, organism-based; conditions: cercopithecidae, read-out: Clp
[11] = Half -life in rat; format: ADME; conditions: in vivo

Sequence of Dipeptidyl peptidase 4 (Homo sapiens, UniProt P27487) (P27487 whole entry): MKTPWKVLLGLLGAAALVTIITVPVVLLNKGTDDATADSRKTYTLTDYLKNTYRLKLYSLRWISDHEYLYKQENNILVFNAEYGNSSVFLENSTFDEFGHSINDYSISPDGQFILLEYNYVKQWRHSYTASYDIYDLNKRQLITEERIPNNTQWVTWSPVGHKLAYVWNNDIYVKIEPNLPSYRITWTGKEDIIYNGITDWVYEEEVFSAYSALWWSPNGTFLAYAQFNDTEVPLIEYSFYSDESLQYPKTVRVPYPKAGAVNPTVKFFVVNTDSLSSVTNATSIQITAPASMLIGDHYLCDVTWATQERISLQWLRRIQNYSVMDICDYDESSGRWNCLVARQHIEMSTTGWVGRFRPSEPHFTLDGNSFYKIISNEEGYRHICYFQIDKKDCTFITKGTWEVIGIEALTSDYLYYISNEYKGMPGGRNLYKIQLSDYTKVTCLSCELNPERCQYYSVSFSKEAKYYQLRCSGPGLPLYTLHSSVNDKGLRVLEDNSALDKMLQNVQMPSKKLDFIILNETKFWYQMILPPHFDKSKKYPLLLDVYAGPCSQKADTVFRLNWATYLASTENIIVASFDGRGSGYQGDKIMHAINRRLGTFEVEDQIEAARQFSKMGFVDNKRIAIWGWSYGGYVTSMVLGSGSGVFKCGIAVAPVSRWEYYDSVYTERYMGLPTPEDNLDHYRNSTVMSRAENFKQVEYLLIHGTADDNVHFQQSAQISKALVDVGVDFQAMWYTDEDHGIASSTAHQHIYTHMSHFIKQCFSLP
Sequence of Dipeptidyl peptidase 9 (Q86TI2 whole entry): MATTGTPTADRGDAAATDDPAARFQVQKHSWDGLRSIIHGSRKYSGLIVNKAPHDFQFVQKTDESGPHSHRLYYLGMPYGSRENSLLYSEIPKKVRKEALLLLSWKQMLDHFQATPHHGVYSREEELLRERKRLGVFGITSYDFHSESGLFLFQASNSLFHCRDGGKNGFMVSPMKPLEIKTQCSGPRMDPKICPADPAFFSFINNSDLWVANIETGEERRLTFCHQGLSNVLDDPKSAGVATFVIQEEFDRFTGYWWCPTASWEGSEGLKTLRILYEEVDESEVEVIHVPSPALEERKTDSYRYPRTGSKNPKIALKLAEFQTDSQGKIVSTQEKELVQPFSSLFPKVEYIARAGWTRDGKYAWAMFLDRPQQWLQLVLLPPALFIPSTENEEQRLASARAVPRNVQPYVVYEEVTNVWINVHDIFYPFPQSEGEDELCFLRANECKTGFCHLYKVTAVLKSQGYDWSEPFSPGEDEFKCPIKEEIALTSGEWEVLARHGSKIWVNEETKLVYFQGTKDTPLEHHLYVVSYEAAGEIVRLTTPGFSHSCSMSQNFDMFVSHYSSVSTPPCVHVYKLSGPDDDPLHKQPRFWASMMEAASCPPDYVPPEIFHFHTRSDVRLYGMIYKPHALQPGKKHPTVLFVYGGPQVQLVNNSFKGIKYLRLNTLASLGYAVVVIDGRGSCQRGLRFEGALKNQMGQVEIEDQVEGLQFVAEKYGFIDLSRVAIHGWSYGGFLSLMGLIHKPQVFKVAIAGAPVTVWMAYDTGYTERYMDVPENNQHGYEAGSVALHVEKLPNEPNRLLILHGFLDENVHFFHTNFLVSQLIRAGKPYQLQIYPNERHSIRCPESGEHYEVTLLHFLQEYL
T1 sequence (P28843 whole entry): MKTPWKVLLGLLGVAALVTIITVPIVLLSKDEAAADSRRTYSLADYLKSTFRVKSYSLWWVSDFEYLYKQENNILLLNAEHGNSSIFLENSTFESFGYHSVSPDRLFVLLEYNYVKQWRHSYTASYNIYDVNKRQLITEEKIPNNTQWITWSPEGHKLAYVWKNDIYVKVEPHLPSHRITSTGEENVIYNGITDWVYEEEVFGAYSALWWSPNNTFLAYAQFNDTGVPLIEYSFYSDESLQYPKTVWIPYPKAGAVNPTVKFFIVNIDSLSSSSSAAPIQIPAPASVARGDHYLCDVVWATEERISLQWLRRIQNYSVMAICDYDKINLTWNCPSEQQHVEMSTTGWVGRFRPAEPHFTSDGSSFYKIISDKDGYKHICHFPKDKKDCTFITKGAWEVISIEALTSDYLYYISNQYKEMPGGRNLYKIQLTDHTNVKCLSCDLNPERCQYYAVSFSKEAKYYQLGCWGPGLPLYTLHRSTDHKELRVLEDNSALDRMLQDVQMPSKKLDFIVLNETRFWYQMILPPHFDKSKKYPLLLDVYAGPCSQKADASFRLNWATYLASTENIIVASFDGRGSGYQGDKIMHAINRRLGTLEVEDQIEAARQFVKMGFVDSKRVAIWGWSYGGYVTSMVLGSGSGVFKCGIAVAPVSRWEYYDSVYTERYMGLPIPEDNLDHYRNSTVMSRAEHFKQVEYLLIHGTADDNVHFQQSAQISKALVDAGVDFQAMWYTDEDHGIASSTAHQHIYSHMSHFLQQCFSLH
Sequence of Dipeptidyl peptidase 8 (Q6V1X1 whole entry): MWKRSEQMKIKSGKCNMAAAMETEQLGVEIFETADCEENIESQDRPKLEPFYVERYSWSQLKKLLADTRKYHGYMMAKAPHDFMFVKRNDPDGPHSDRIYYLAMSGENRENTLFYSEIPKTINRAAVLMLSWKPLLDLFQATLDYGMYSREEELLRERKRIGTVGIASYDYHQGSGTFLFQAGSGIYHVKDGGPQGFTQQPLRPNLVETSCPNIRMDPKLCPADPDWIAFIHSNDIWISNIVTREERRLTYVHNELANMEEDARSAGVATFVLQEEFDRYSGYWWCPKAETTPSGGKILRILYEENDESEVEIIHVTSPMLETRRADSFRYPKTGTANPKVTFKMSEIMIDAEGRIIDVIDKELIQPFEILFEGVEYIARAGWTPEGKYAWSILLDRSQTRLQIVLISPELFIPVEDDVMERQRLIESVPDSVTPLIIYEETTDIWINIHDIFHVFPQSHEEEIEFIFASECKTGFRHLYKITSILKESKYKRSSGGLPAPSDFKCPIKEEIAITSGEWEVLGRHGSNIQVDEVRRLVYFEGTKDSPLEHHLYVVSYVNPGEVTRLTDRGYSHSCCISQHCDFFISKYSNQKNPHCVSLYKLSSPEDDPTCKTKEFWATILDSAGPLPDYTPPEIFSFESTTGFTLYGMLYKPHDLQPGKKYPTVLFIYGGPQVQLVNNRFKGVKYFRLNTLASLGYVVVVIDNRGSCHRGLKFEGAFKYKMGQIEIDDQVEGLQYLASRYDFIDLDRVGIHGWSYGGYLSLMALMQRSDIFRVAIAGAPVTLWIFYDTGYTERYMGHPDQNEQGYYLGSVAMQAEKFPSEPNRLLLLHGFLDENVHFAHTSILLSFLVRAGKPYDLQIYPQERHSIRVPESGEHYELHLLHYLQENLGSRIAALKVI

| Structure (SMILES) | IC50 (Dipeptidyl peptidase 4 [1]) | IC50 (Dipeptidyl peptidase 9) | IC50 (Dipeptidyl peptidase 2) | IC50 (Dipeptidyl peptidase 8) | further results |
| --- | --- | --- | --- | --- | --- |
| N[C@H](C(=O)N1CC[C@H](F)C1)[C@@H](C(=O)N1CCC1)c1ccc(-c2ccc(F)cc2)cc1 | 0.044 µM | > 100 µM | 5.3 µM | – | – |
| CN(C)C(=O)[C@@H](c1ccc(-c2ccc(F)cc2F)cc1)[C@H](N)C(=O)N1CC[C@H](F)C1 | 0.013 µM | > 100 µM | 15 µM | – | – |
| N[C@H](C(=O)N1CC[C@H](F)C1)[C@@H](C(=O)Nn1cnnn1)c1ccc(-c2ccc(F)cc2)cc1.O=C(O)C(F)(F)F | 0.011 µM | > 100 µM | > 100 µM | – | half-life [2]: 0.2 h; clearance [3]: 55 mL/min/kg; bioavailability (in vivo): < 1% |
| CC(C)NC(=O)[C@@H](c1ccc(-c2ccc(F)cc2)cc1)[C@H](N)C(=O)N1CC[C@H](F)C1 | 0.099 µM | > 100 µM | 76 µM | – | – |
| CN(C)C[C@@H](c1ccc(-c2ccc(F)cc2)cc1)[C@H](N)C(=O)N1CC[C@H](F)C1 | 1.6 µM | > 100 µM | 2.5 µM | – | – |
| CN(C)C(=O)[C@@H](c1ccc(-c2ccc(F)cc2)cc1)[C@H](N)C(=O)N1CCC[C@H]1C#N | 0.0033 µM | – | 40 µM | – | – |
| CCNC(=O)[C@@H](c1ccc(-c2ccc(F)cc2)cc1)[C@H](N)C(=O)N1CC[C@H](F)C1 | 0.11 µM | > 100 µM | 90 µM | > 100 µM | – |
| N[C@@H](Cc1ccc(-c2ccc(F)cc2)cc1)C(=O)N1CC[C@H](F)C1 | 0.98 µM | > 100 µM | > 100 µM | > 100 µM | – |
| N[C@H](C(=O)N1CC[C@H](F)C1)[C@@H](CN1CCCC1)c1ccc(-c2ccc(F)cc2)cc1 | 3.5 µM | > 100 µM | 0.7 µM | – | – |
| CN(C)C(=O)[C@@H](c1ccc(-c2ccc(F)c(F)c2)cc1)[C@H](N)C(=O)N1CC[C@H](F)C1 | 0.021 µM | – | 44 µM | – | – |
| CN(C)C(=O)[C@@H](c1ccc(-c2cccc(C#N)c2)cc1)[C@H](N)C(=O)N1CC[C@H](F)C1 | 0.043 µM | – | 57 µM | – | – |
| CN(C)C(=O)[C@@H](c1ccc(-c2ccc(F)cc2)cc1)[C@H](N)C(=O)N1CCCC1.O=C(O)C(F)(F)F | 0.0075 µM | – | 26 µM | – | half-life [2]: 2 h; clearance [3]: 16 mL/min/kg; bioavailability (in vivo): 100% |
| N[C@H](C(=O)N1CC[C@H](F)C1)[C@@H](C(=O)NCCO)c1ccc(-c2ccc(F)cc2)cc1 | 0.094 µM | > 100 µM | – | – | – |
| CNC(=O)[C@@H](c1ccc(-c2ccc(F)cc2)cc1)[C@H](N)C(=O)N1CC[C@H](F)C1 | 0.037 µM | > 100 µM | > 100 µM | – | – |
| N[C@H](C(=O)N1CC[C@H](F)C1)[C@@H](C(=O)NC1CC1)c1ccc(-c2ccc(F)cc2)cc1 | 0.071 µM | > 100 µM | 55 µM | – | – |
| CN(C)C(=O)[C@@H](c1ccc(-c2ccc(F)cc2)cc1)[C@H](N)C(=O)N1CCSC1 | 0.0091 µM | – | 8.5 µM | – | – |
| CN(C)C(=O)[C@@H](c1ccc(-c2ccc(F)cc2)cc1)[C@H](N)C(=O)N1CCCCC1 | 0.55 µM | > 100 µM | 38 µM | > 100 µM | – |
| CN(C)C(=O)[C@@H](c1ccc(-c2ccc(F)cc2)cc1)[C@H](N)C(=O)N1CC[C@H](F)C1.O=C(O)C(F)(F)F | – | – | – | – | IC50 (Dipeptidyl peptidase 4 [4]): 0.05 µM; IC50 (Dipeptidyl peptidase 4 [5]): 0.071 µM; IC50 (Dipeptidyl peptidase 4 [6]): 0.23 µM; half-life [7]: 6.1 h; half-life [8]: 4.7 h; half-life [2]: 3.5 h; clearance [9]: 1.5 mL/min/kg; clearance [10]: 2.4 mL/min/kg; clearance [3]: 4.8 mL/min/kg |
| NC(=O)[C@@H](c1ccc(-c2ccc(F)cc2)cc1)[C@H](N)C(=O)N1CC[C@H](F)C1 | 0.11 µM | > 100 µM | > 100 µM | > 100 µM | – |
| N[C@H](C(=O)N1CC[C@H](F)C1)[C@@H](C(=O)N1CCCC1)c1ccc(-c2ccc(F)cc2)cc1.O=C(O)C(F)(F)F | 0.0092 µM | – | 5.6 µM | – | half-life [2]: 1.7 h; clearance [3]: 18 mL/min/kg; bioavailability (in vivo): 21% |

| Structure (SMILES) | IC50 (Dipeptidyl peptidase 4 [1]) | IC50 (Dipeptidyl peptidase 9) | IC50 (Dipeptidyl peptidase 2) | IC50 (Dipeptidyl peptidase 8) | further results |
| --- | --- | --- | --- | --- | --- |
| N[C@H](C(=O)N1CC[C@H](F)C1)[C@@H](C(=O)O)c1ccc(-c2ccc(F)cc2)cc1.O=C(O)C(F)(F)F | 0.0066 µM | > 100 µM | > 100 µM | > 100 µM | half-life [11]: 3.1 h; clearance [3]: 0.25 mL/min/kg; bioavailability (in vivo): 16% |
| CN(C)C(=O)[C@@H](c1ccc(-c2ccc(F)cc2)cc1)[C@H](N)C(=O)N1CCC(F)(F)C1 | 0.027 µM | – | 7.1 µM | – | – |
| CN(C)C(=O)[C@@H](c1ccc(-c2cccc(-n3cnnn3)c2)cc1)[C@H](N)C(=O)N1CC[C@H](F)C1.O=C(O)C(F)(F)F | 0.0022 µM | > 100 µM | 29 µM | > 100 µM | half-life [2]: 0.74 h; clearance [3]: 18 mL/min/kg; bioavailability (in vivo): < 1% |
| CN(C)C(=O)[C@@H](c1ccc(-c2cc(F)ccc2F)cc1)[C@H](N)C(=O)N1CC[C@H](F)C1 | 0.056 µM | > 100 µM | 11 µM | – | – |
| N[C@H](C(=O)N1CC[C@H](F)C1)[C@@H](Cn1cnnn1)c1ccc(-c2ccc(F)cc2)cc1 | 0.192 µM | > 100 µM | > 100 µM | > 100 µM | – |
| CN(C)C(=O)[C@@H](c1ccc(-c2ccc(F)cc2)cc1)[C@H](N)C(=O)N1CC(F)C1 | 0.017 µM | > 100 µM | 58 µM | > 100 µM | – |
| CN(C)C(=O)[C@@H](c1ccc(-c2ccc(F)cc2)cc1)[C@H](N)C(=O)N1CC(F)(F)C1 | 0.029 µM | > 100 µM | 9.4 µM | > 100 µM | – |
| CCN(CC)C(=O)[C@@H](c1ccc(-c2ccc(F)cc2)cc1)[C@H](N)C(=O)N1CC[C@H](F)C1 | 0.059 µM | > 100 µM | 48 µM | – | – |
| N[C@H](C(=O)N1CC[C@H](F)C1)[C@@H](CO)c1ccc(-c2ccc(F)cc2)cc1 | 0.39 µM | > 100 µM | 15 µM | > 100 µM | – |
| CN(C)C(=O)[C@@H](c1ccc(-c2ccc(F)cc2)cc1)[C@H](N)C(=O)N1CCS(=O)(=O)C1 | 0.23 µM | > 100 µM | 75 µM | > 100 µM | – |
| CN(C)C(=O)[C@@H](c1ccc(-c2ccc(F)cc2)cc1)[C@H](N)C(=O)N1CCC1 | 0.1 µM | > 100 µM | > 100 µM | > 100 µM | – |
| CN(C)C(=O)[C@@H](c1ccc(-c2cccc(S(C)(=O)=O)c2)cc1)[C@H](N)C(=O)N1CC[C@H](F)C1 | 0.021 µM | > 100 µM | 81 µM | > 100 µM | – |
| CON(C)C(=O)[C@@H](c1ccc(-c2ccc(F)cc2)cc1)[C@H](N)C(=O)N1CC[C@H](F)C1 | 0.045 µM | > 100 µM | > 100 µM | – | – |
| CN(C)C(=O)[C@@H](c1ccc(-c2ccc(F)cc2)cc1)[C@H](N)C(=O)N1CCOCC1 | 0.52 µM | > 100 µM | 77 µM | > 100 µM | – |
| CN(C)NC(=O)[C@@H](c1ccc(-c2ccc(F)cc2)cc1)[C@H](N)C(=O)N1CC[C@H](F)C1 | 0.067 µM | > 100 µM | > 100 µM | – | – |
| COC(=O)[C@@H](c1ccc(-c2ccc(F)cc2)cc1)[C@H](N)C(=O)N1CC[C@H](F)C1 | 0.22 µM | > 100 µM | 21 µM | > 100 µM | – |
| CCN(C)C(=O)[C@@H](c1ccc(-c2ccc(F)cc2)cc1)[C@H](N)C(=O)N1CC[C@H](F)C1 | 0.02 µM | > 100 µM | 43 µM | – | – |
| CN(C)C(=O)[C@@H](c1ccc(-c2cccc(-[n+]3ccccc3)c2)cc1)[C@H](N)C(=O)N1CC[C@H](F)C1 | 0.019 µM | > 100 µM | 57 µM | – | – |
| CN(C)C(=O)[C@@H](c1ccc(-c2ccc(-[n+]3ccccc3)cc2)cc1)[C@H](N)C(=O)N1CC[C@H](F)C1 | 0.02 µM | – | 89 µM | > 100 µM | – |
